Drawing on article PMC2655646, “A Conserved Mechanism for Control of Human and Mouse Embryonic Stem Cell Pluripotency and Differentiation by Shp2 Tyrosine Phosphatase” (PLoS ONE, 2009), this text covers IC50 for 1 molecule.

For one experiment, the target named is T1, Shp2 (Mus musculus, UniProt P35235).
T1 construct: gene Ptpn11; GST-tagged PTP domain
T1 sequence (P35235 247-521 limits assumed): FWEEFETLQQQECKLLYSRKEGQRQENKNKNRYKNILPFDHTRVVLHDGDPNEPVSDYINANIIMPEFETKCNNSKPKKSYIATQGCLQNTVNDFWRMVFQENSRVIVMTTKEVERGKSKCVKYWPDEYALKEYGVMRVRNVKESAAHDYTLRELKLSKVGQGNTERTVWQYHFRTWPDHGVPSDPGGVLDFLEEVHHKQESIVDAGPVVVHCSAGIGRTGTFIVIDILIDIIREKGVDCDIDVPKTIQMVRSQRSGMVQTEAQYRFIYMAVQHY
As to the kind of experiment: pNPP phosphatase assay with purified GST-PTP domain, absorbance at […] nm; Ki also determined ([…]). Type of experiment: biochemical.

A further experiment concerns the target T2, Shp1 (Mus musculus, UniProt P29351).
T2 construct: gene Ptpn6; GST-tagged PTP domain
T2 sequence (P29351 244-515 limits assumed): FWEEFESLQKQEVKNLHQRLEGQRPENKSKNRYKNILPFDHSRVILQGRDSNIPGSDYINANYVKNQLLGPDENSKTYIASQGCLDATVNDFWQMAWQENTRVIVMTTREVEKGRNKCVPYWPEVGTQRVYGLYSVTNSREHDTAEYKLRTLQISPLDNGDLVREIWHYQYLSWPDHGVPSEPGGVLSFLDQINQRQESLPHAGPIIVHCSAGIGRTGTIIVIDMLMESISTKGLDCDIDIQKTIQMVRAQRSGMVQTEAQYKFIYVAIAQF
As to the kind of experiment: phosphatase inhibition assay with purified GST-PTP domain. The format is biochemical.

Regarding `O=C(O)c1cc(O)c(=O)c2c(O)c(O)ccc2c1` [DCA, 7-deshydroxypyrogallin-4-carboxylic acid], the concentration for half-maximal inhibition (IC50) at Shp2 is 2.1 µM; against Shp1, 2.3 µM.

The IC50 is the concentration that inhibits the measured activity by half.
